Source: patent US11168073B2, “3,3-difluoroallylamines or salts thereof and pharmaceutical compositions comprising the same” (YUHAN CORPORATION, priority 2018, dated 2021)
Structures can show the parent of a compound that is named as a salt. Where two headings read alike, the source gives them in different places.

Legend:
Type in all cases: biochemical
[1] = target: T1, recombinant human DAO (diamine oxidase) (Homo sapiens, UniProt P19801); experiment: Activity evaluation on recombinant human DAO (Amplex Red/HRP-coupled assay, 1 mM putrescine substrate); details: read-out: Inhibitory Activity (IC50, nM) DAO
T1 construct: purchased R&D systems
T1 sequence (P19801 20-751): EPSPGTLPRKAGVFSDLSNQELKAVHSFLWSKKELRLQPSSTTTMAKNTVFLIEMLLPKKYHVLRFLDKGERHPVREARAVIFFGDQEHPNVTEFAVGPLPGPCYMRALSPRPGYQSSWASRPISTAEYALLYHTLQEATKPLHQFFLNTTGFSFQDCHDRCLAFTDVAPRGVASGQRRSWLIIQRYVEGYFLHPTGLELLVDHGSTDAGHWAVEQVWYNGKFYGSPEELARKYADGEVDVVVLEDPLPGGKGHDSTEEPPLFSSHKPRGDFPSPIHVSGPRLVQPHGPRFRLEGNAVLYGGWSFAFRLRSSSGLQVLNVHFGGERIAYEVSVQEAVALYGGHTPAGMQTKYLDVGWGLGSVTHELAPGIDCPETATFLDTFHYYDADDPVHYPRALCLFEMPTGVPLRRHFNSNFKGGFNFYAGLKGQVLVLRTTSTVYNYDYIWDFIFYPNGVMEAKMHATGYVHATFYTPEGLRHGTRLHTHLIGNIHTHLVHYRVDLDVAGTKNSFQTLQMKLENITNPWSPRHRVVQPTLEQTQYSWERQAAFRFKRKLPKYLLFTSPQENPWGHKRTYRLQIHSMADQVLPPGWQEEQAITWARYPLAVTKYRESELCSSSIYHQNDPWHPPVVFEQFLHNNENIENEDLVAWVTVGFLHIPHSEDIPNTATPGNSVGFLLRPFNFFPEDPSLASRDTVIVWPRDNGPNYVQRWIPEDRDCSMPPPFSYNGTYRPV
Procedure: (§1) The compounds according to the present technology were evaluated in terms of activity on recombinant human VAP-1 (R&D systems) by measuring the level of hydrogen peroxide in horseradish peroxidase (HRP)-coupled reaction using Amplex Red Hydrogen Peroxide Assay Kit (Molecular Probes, Invitrogen, USA). The experiment was carried out at room temperature using benzylamine as a substrate. In the HRP-coupled reaction, hydrogen peroxide oxidation of 10-acetyl-3,7-dihydroxyphenoxazine (Amplex Red reagent) produces resorufin, which is a highly fluorescent compound. Briefly, the test compound was dissolved in dimethyl sulfoxide (DMSO) at a concentration of 20 mM. The dose-response assessment was made by 1:3 serial dilution in DMSO, thereby creating a 8 point curve. The concentration of the upper part was controlled according to the efficacy of the compounds, followed by the dilution with a reaction buffer solution to obtain a final DMSO concentration of less than 1%. To each well of a 96 black well plate, human VAP-1 purified in 50 mM sodium phosphate buffer solution (pH7.4) was added. The test compounds dissolved in DMSO were incubated with the human VAP-1 enzymes at 37° C. for 30 minutes. After 30-minute incubation, each well was added with a reaction mixture containing 200 uM Amplex Red reagent prepared from 50 mM sodium phosphate buffer solution (pH 7.4), 1 mM benzylamine, and 1 U/mL HRP. Fluorescence intensity was measured at several time points during 1-2 hours using a microplate reader (Flexstation3, Molecular Devices) under the wavelength condition exciting at 544 nm and reading the emission at 590 nm. The inhibitory effect of the compounds was measured as a decrease (%) in the signal rate as compared to the control group without any inhibitor (only diluted DMSO). Data was fixed to a logistic model with four variables and IC50 value was calculated using GraphPad Prism program.
(§2) In addition, the compounds according to the present technology were evaluated in terms of activity on a recombinant human MAO-A (monoamine oxidase-A, Sigma-Aldrich) and a recombinant human MAO-B (monoamine oxidase-B, Sigma-Aldrich) by using as substrates, 0.5 mM tyramine and 1 mM benzylamine, respectively, with a method similar to the activity evaluation method for recombinant human VAP-1. The compounds according to the present technology were also evaluated in terms of activity on a recombinant human DAO (diamine oxidase, R&D systems) by using as a substrate 1 mM putrescine with a method similar to the activity evaluation method for recombinant human VAP-1.

[2] = target: T2, recombinant human MAO-A (monoamine oxidase-A) (Homo sapiens, UniProt P21397); experiment: Activity evaluation on recombinant human MAO-A (Amplex Red/HRP-coupled assay, 0.5 mM tyramine substrate); details: read-out: Inhibitory Activity (IC50, nM) MAO-A
T2 construct: purchased Sigma-Aldrich
T2 sequence (P21397 1-527): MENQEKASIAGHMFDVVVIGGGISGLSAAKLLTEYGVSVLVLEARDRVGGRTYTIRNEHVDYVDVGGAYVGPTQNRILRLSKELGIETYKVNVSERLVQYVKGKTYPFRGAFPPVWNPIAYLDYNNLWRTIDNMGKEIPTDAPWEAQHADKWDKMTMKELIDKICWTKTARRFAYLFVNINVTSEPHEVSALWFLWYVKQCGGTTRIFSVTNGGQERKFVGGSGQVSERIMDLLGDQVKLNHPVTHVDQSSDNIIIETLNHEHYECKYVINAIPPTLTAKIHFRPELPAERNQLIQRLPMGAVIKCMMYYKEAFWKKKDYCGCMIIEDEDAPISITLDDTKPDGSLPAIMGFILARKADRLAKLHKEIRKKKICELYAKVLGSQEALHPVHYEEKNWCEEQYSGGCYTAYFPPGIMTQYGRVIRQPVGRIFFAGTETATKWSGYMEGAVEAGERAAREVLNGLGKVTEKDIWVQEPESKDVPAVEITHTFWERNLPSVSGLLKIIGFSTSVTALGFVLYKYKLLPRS
Procedure: as §1, §2

[3] = target: T3, recombinant human MAO-B (monoamine oxidase-B) (Homo sapiens, UniProt P27338); experiment: Activity evaluation on recombinant human MAO-B (Amplex Red/HRP-coupled assay, 1 mM benzylamine substrate); details: read-out: Inhibitory Activity (IC50, nM) MAO-B
T3 construct: purchased Sigma-Aldrich
T3 sequence (P27338 1-520): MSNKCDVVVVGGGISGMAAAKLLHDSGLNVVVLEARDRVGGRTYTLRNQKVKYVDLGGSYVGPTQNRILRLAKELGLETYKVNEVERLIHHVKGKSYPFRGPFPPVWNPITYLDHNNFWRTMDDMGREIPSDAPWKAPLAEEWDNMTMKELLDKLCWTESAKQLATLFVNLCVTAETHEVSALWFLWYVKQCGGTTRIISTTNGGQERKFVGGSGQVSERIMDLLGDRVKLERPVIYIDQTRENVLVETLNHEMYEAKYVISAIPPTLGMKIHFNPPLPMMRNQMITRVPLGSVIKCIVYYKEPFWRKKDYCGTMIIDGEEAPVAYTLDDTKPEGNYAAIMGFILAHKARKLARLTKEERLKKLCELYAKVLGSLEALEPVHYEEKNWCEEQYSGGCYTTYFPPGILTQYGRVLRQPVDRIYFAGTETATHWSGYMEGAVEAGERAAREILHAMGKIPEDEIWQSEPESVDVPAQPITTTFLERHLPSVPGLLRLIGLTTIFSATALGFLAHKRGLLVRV
Procedure: as §1, §2

[4] = target: T4, recombinant human VAP-1 (Homo sapiens, UniProt Q16853); experiment: Activity evaluation on recombinant human VAP-1 (Amplex Red/HRP-coupled hydrogen peroxide assay, benzylamine substrate); details: read-out: Inhibitory Activity (IC50, nM) human VAP-1
T4 construct: purchased R&D systems
T4 sequence (Q16853 1-763): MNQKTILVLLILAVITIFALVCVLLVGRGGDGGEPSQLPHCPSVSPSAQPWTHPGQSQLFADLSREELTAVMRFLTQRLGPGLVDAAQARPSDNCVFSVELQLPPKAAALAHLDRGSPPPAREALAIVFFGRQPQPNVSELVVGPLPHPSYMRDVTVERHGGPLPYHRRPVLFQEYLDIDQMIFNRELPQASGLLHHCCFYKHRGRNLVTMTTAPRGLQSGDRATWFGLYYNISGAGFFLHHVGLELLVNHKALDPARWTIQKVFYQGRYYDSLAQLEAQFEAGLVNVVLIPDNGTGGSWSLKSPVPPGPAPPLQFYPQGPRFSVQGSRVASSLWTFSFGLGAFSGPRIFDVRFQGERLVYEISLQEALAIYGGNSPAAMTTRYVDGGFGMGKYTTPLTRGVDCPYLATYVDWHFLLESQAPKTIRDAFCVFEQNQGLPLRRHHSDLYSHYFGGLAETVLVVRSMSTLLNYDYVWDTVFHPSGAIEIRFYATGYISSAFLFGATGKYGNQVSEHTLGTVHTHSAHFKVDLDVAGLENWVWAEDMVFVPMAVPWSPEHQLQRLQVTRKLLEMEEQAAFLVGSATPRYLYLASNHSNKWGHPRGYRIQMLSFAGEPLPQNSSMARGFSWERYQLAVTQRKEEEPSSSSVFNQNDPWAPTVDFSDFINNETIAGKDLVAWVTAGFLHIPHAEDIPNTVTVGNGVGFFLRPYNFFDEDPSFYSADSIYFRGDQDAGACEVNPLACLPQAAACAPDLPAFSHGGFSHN
Procedure: as §1

[5] = recombinant human VAP-1, 30 min preincubation at 37° C., 1 mM benzylamine
[6] = recombinant human VAP-1, benzylamine substrate

SMILES	IC50 ([1]; 1 mM putrescine) [nM]	IC50 ([2]; 0.5 mM tyramine) [nM]	IC50 ([3]; 1 mM benzylamine) [nM]	IC50 [4, 5] [nM]	IC50 ([1]; 1 mM putrescine substrate) [nM]	IC50 ([2]; 0.5 mM tyramine substrate) [nM]	IC50 ([3]; 1 mM benzylamine substrate) [nM]	IC50 [4, 6] [nM]
CCn1cc(-c2cc(-n3cnn(CC(CN)=C(F)F)c3=O)ccn2)cn1 [Example 67, 2-[2-(aminomethyl)-3,3-difluoro-allyl]-4-[2-(1-ethylpyrazol-4-yl)-4-pyridyl]-1,2,4-triazol-3-one Trifluoroacetate]	490	> 100000	8300	0.9	–	–	–	–
CN(C)c1ccc(-c2cnc(-n3cnn(CC(CN)=C(F)F)c3=O)cn2)cn1 [Example 92, 2-[2-(aminomethyl)-3,3-difluoro-allyl]-4-[5-[6-(dimethylamino)-3-pyridyl]pyrazin-2-yl]-1,2,4-triazol-3-one Trifluoroacetate]	8	> 100000	6200	0.2	–	–	–	–
NCC(Cn1ncn(-c2cc(-c3ccc4c(c3)OCO4)ccn2)c1=O)=C(F)F [Example 58, 2-[2-(aminomethyl)-3,3-difluoro-allyl]-4-[4-(1,3-benzodioxol-5-yl)-2-pyridyl]-1,2,4-triazol-3-one Trifluoroacetate]	1700	> 100000	> 100000	2.2	–	–	–	–
Cc1cc(-c2ccc(S(C)(=O)=O)cc2)cnc1-n1cnn(CC(CN)=C(F)F)c1=O [Example 68, 2-[2-(aminomethyl)-3,3-difluoro-allyl]-4-[3-methyl-5-(4-methylsulfonylphenyl)-2-pyridyl]-1,2,4-triazol-3-one Trifluoroacetate]	2100	> 100000	55000	0.5	–	–	–	–
NCC(Cn1ncn(Cc2ccc(-c3ccc4c(c3)CCC(=O)N4)s2)c1=O)=C(F)F [Example 133, 6-[5-[[1-[2-(aminomethyl)-3,3-difluoro-allyl]-5-oxo-1,2,4-triazol-4-yl]methyl]-2-thienyl]-3,4-dihydro-1H-quinolin-2-one Trifluoroacetate]	> 10000	> 100000	> 100000	0.2	–	–	–	–
Cc1cc(-c2ccc(N3CCOCC3)cc2)cnc1-n1cnn(CC(CN)=C(F)F)c1=O [Example 237, 2-[2-(aminomethyl)-3,3-difluoro-allyl]-4-[3-methyl-5-(4-morpholinophenyl)-2-pyridyl]-1,2,4-triazol-3-one Trifluoroacetate]	–	–	–	–	6100	> 100000	84000	0.42
NCC(Cn1ncn(Cc2ccc(-c3ccc4c(c3)NC(=O)CO4)s2)c1=O)=C(F)F [Example 141, 6-[5-[[1-[2-(aminomethyl)-3,3-difluoro-allyl]-5-oxo-1,2,4-triazol-4-yl]methyl]-2-thienyl]-4H-1,4-benzoxazin-3-one Trifluoroacetate]	16000	8100	20000	0.6	–	–	–	–
Cc1cc(-c2ccc3c(c2)OCO3)cnc1-n1cnn(CC(CN)=C(F)F)c1=O [Example 72, 2-[2-(aminomethyl)-3,3-difluoro-allyl]-4-[5-(1,3-benzodioxol-5-yl)-3-methyl-2-pyridyl]-1,2,4-triazol-3-one Trifluoroacetate]	57000	> 100000	1500	0.5	–	–	–	–
Cn1cc(C#Cc2cccc(-n3cnn(CC(CN)=C(F)F)c3=O)n2)cn1 [Example 160, 2-[2-(aminomethyl)-3,3-difluoro-allyl]-4-[6-[2-(1-methylpyrazol-4-yl)ethynyl]-2-pyridyl]-1,2,4-triazol-3-one trifluoroacetate]	5090	> 100000	15600	1.5	–	–	–	–
Cc1c(-c2ccc3c(c2)OCO3)cccc1-n1cnn(CC(CN)=C(F)F)c1=O [Example 257, 2-[2-(aminomethyl)-3,3-difluoro-allyl]-4-[3-(1,3-benzodioxol-5-yl)-2-methyl-phenyl]-1,2,4-triazol-3-one Trifluoroacetate]	–	–	–	–	> 100000	> 100000	101000	2.4
